Entries after “also recorded” stand apart in the source; their conditions may differ.
Key:
[1] = system: erythrocyte sedimentation rate; assay: Regression of serum fatty acid forms against erythrocyte sedimentation rate in dolphins on modified diet; type: in vivo, bottlenose dolphin (Tursiops truncatus); settings: for Serum hexosylceramide concentration resulting in erythrocyte sedimentation rates lower than 15 mm/hr (threshold effect): FIGS. 3A-3B
[2] = Total serum fatty acid concentrations in dolphins fed modified fish diet; settings: for Total serum fatty acid concentration: case dolphins fed modified diet (n = 20); for concentration at 0 month / concentration at 1 month / concentration at 3 month / concentration at 6 month: bottlenose dolphin (Tursiops truncatus)
Protocol: This study examined the impact on inflammation by modifying fatty acid profiles through the diet in 20 MMP dolphins (“Group A dolphins”). The dolphins lived in netted enclosures within San Diego Bay. […] On blood collection days, Group A dolphins were fed one-third of their daily diet in the morning after their routine overnight fast and 2h postprandial, in-water, and trained blood samples were drawn (typically near 10:00 a.m.). An additional ten MMP dolphins (“Group B dolphins”) were maintained on the baseline capelin diet throughout the study period.
Two hour post-prandial samples were collected from Group A and Group B dolphins at baseline (month 0) and at three time points following the switch to the modified diet: months 1, 3, and 6. Dolphins were assessed for changes in serum fatty acid concentrations (total and various forms) and indices of inflammation, including erythrocyte sedimentation rate and alkaline phosphatase.
Blood was collected into BD Vacutainer serum separator tubes (for serum fatty acid profiles) or an evacuated tube containing EDTA (K3). Serum separator tubes were centrifuged at 3000 rpm for 10 minutes within 30 to 60 minutes of collection and chilled during processing until shipment. Serum was transferred to cryovials and stored at −80° C. until shipment on dry ice via overnight courier to the reference laboratories.
Total serum fatty acid profiles were performed by the Genetics Laboratories at the Kennedy Krieger Institute. […] Each run was required to pass clinical laboratory quality control before the data were released. […] Percent fatty acids in serum was used as a sturdier index to help reduce potential variability in serum among study dolphins.
Statistical analyses were conducted using World Programming System software (World Programming Ltd., Hampshire, United Kingdom). Significance was defined as a P value less than or equal to 0.05. Mean daily dietary intake of individual fatty acids were compared between pre-study and in-study diets for Group A and Group B dolphins using Wilcoxon rank sum tests. Indices of inflammation (erythrocyte sedimentation rate and alkaline phosphatase) and serum fatty acid concentrations (total and individual classes) from Month 1, 3, and 6 were compared with Month 0 for Group A and Group B dolphins using repeated measures ANOVA (MIXED model). […] Fatty acids that were independent predictors of erythrocyte sedimentation rate were then tested for linear associations with erythrocyte sedimentation rate using simple linear regressions. Fatty acids that were independent predictors of erythrocyte sedimentation rate and had inverse linear associations with these indices (defined as a P value less than or equal to 0.05 and an R^2 greater than or equal to 0.1), were characterized as fatty acids that independently predicted improved inflammation.

[3] = Serum fatty acid form concentrations (complex lipidomics) in dolphins fed modified fish diet; type: in vivo; settings: bottlenose dolphin (Tursiops truncatus), case dolphins fed modified diet (n = 20), read-out: Serum concentration, FFA (free fatty acid) form; for concentration at 0 month: Month 0 (baseline); for concentration at 1 month: Month 1; for concentration at 3 month: Month 3; for concentration at 6 month: Month 6
Protocol: Determination of serum fatty acid concentrations, including a variety of fatty acid classes, were performed by Metabolon, Inc. (Durham, N.C.) using complex lipidomics. […] The extracts were concentrated under nitrogen and reconstituted in 0.25 mL of dichloromethane:methanol (50:50) containing 10 mM ammonium acetate. The extracts were placed in vials for infusion-MS analyses, performed on a SelexION equipped Sciex 5500 QTRAP using both positive and negative mode electrospray. Each sample was subjected to 2 analyses, with IMS-MS conditions optimized for lipid classes monitored in each analysis. The 5500 QTRAP was operated in MRM mode to monitor the transitions for over 1,100 lipids from up to 14 lipid classes. Individual lipid species were quantified based on the ratio of signal intensity for target compounds to the signal intensity for an assigned internal standard of known concentration. Lipid class concentrations were calculated from the sum of all molecular species within a class, and fatty acid compositions were determined by calculating the proportion of individual fatty acids within each class.

[4] = Tolerability, body weight and food intake in high fat diet obese mice given C15:0; type: in vivo
Protocol: (§1) This study examined the impact of daily oral administration of synthetic pentadecanoic acid (C15:0) on inflammation in an obese mouse model. Twenty C57BL/6J mice were fed a high fat diet (HFD) (D12492, 60% kcals fat) for 8 weeks. Study mice were then divided into the following two groups of ten: vehicle controls and C15:0-treated (5 mg/kg body weight). The predicted therapeutic dose of 5 mg/kg was based upon modified diet studies in the dolphin model.
Mice in the C15:0 treatment group tolerated the test article throughout the study. […] No changes were found in body weight, percent body weight change, or food intake when comparing the study groups (not shown).

IL-6, IL-18, and MCP-1 = assay: Serum adipokines (cytokines) in high fat diet induced obese mice after daily oral C15:0; type: in vivo, C57BL/6J mice; settings: obese HFD mice
Protocol: as §1

[5] = Month 0 (baseline), 2h postprandial

CCCCCCCCCCCCCCCCCCCCCC(=O)O [C22:0, behenic acid]
Serum hexosylceramide concentration resulting in erythrocyte sedimentation rates lower than 15 mm/hr (threshold effect) [1]: greater than 0.11 uM | Total serum fatty acid concentration [2, 5]: 23 ± 4 µM | Total serum fatty acid concentration ([2]; Month 1, 2h postprandial): 21 ± 3 µM | Total serum fatty acid concentration ([2]; Month 3, 2h postprandial): 23 ± 3 µM | Total serum fatty acid concentration ([2]; Month 6, 2h postprandial): 24 ± 5 µM

CCCCCCCCCCCCCCCCCCCC(=O)O [C20:0, arachidic acid]
Serum hexosylceramide concentration resulting in erythrocyte sedimentation rates lower than 15 mm/hr (threshold effect) [1]: greater than 0.20 uM | concentration at 0 month ([2]; in vivo): 94 ± 22 µM | concentration at 1 month ([2]; in vivo): 87 ± 17 µM | concentration at 3 month ([2]; in vivo): 98 ± 17 µM | concentration at 6 month ([2]; in vivo): 96 ± 15 µM | concentration at 0 month ([3]; in vivo): 6.6 ± 2.5 µM | concentration at 1 month ([3]; in vivo): 4.4 ± 1.4 µM | concentration at 3 month ([3]; in vivo): 5 ± 2.3 µM | concentration at 6 month ([3]; in vivo): 17 ± 10 µM

CCCCCCCCCCCCCCC(=O)O [C15:0, pentadecanoic acid]
Serum cholesterol ester concentration resulting in erythrocyte sedimentation rates lower than 15 mm/hr (threshold effect) ([1]; FIGS. 2A-2B): greater than 60 uM | Early mortalities in treated group ([4]; mouse, in vivo, 5 mg/kg): no early mortalities | Tolerability of the test article ([4]; mouse, in vivo, 5 mg/kg): tolerated | Body weight, percent body weight change, or food intake vs control group ([4]; obese HFD mice, 5 mg/kg daily gastric gavage, 12 weeks): No changes | Total serum fatty acid concentration ([2]; Month 1, 2h postprandial): 94 ± 33 µM | Serum IL-6 (IL-6, IL-18, and MCP-1; 5 mg/kg daily gastric gavage, Day 84 (n = 10), vehicle control 60 ± 68): 19 ± 11 | Serum MCP-1 (IL-6, IL-18, and MCP-1; 5 mg/kg daily gastric gavage, Day 84 (n = 10), vehicle control 83 ± 31): 52 ± 25 | Serum IL-18 (IL-6, IL-18, and MCP-1; 5 mg/kg daily gastric gavage, Day 84 (n = 10), vehicle control 206 ± 84): 101 ± 86 | Inflammation and adipokines (IL-6, IL-18, and MCP-1) compared to vehicle controls (IL-6, IL-18, and MCP-1; 5 mg/kg daily oral, 12 weeks, 5 mg/kg): lower; also recorded: reduced | concentration at 0 month ([3]; serum, oral): 3.8 ± 1.3 µM | concentration at 1 month ([3]; serum, oral): 4.2 ± 1.5 µM | concentration at 3 month ([3]; serum, oral): 3.6 ± 0.8 µM | concentration at 6 month ([3]; serum, oral): 3.8 ± 1.3 µM

CCCCCCCCCCCCCCCCCCCCCCCCCC(=O)O [C26:0]
Total serum fatty acid concentration [2, 5]: 1.0 ± 0.1 µM | Total serum fatty acid concentration ([2]; Month 1, 2h postprandial): 0.8 ± 0.1 µM | Total serum fatty acid concentration ([2]; Month 3, 2h postprandial): 0.9 ± 0.1 µM | Total serum fatty acid concentration ([2]; Month 6, 2h postprandial): 0.9 ± 0.1 µM

CCCCCCCCCCCCCCCCCCCCCCCC(=O)O [C24:0, lignoceric acid]
concentration at 0 month ([2]; serum, oral): 18 ± 3 µM | concentration at 1 month ([2]; serum, oral): 17 ± 3 µM | concentration at 3 month ([2]; serum, oral): 18 ± 3 µM | concentration at 6 month ([2]; serum, oral): 18 ± 3 µM

CCCCCCCCCCCCCCCC(=O)O [C16:0, palmitic acid]
Total serum fatty acid concentration [2, 5]: 1445 ± 194 µM | Total serum fatty acid concentration ([2]; Month 1, 2h postprandial): 1372 ± 199 µM | Total serum fatty acid concentration ([2]; Month 3, 2h postprandial): 1505 ± 221 µM | Total serum fatty acid concentration ([2]; Month 6, 2h postprandial): 1450 ± 155 µM

CCCCCCCCCCCCCCCCC(=O)O [C17:0, heptadecanoic acid]
Serum phosphatidylcholine concentration resulting in erythrocyte sedimentation rates lower than 15 mm/hr (threshold effect) ([1]; FIGS. 2A-2B): greater than 30 uM | Total serum fatty acid concentration ([2]; Month 1, 2h postprandial): 82 ± 21 µM

From patent publication US10307388B2, “Compositions and methods for diagnosis and treatment of inflammation” (The United States of America as represented by the …, priority 2016, dated 2019)
